Measurements reported in publication PMC4516916, “Development of Plate Reader and On-Line Microfluidic Screening to Identify Ligands of the 5-Hydroxytryptamine Binding Protein in Venoms” (Toxins, 2015).
Structures can show the parent of a compound that is named as a salt.

Legend:
A1B2D1R 5HTBP mutant [1] = target: T1, A1B2D1R 5HTBP mutant (Aplysia californica, UniProt Q8WSF8); assay: Fluorescence enhancement microplate reader assay (DAHBA tracer); format: binding
Protocol: Next, specific and non-specific binding was determined by measuring a tracer saturation curve with and without a displacing ligand. In this experiment, the binding protein concentration was 50 nM while 100 µM granisetron was used as displacing ligand for measurement of the non-specific binding curve. […] The non-specific binding, the total binding curve and the resulting specific binding curve is shown (Figure 2C).
Fourteen 5-HT3R ligands, also binding to the 5HTBP [10], were selected for this experiment. The measured Ki values for both the fluorescence enhancement plate reader assay as well as those measured with the radioligand binding assay are listed (Supplementary Information Table S1).
The buffer used for development of the 5HTBP fluorescence enhancement assay consisted of 1 mM KH2PO4, 3 mM Na2HPO4, […], 20 mM trizma base/HCl at pH 7.5 with addition of 400 μg/mL ELISA BR [21]. The fluorescence enhancement was measured with a Victor3 Microplate reader from Perkin-Elmer. The excitation and emission wavelengths were set to 485 and 520 nm, respectively. Black-bottomed 96-well microplates were purchased from Greiner Bio-One (Alphen aan den Rijn, The Netherlands). The final assay volume was 100 µL per well. The 5HTBP was first mixed with the ligands, and then with the tracer ligand. The assay mixture was incubated for 5 min before the measurement. The pharmacological validation was performed by measurement of IC50 curves of twelve 5-HT3R ligands and comparing the results obtained with the results obtained from a radioligand binding assay (see below). The z’ factors for the determination of assay quality were calculated according to Zhang.

A1B2D1R 5HTBP mutant [2] = target: T1, A1B2D1R 5HTBP mutant; assay: Radioligand binding assay with [3H]-granisetron (SPA)
Protocol: The competitive radioligand-binding assay was performed as described by Kesters et al. 2013 [10]. His-tagged A1B2D1R 5HTBP was diluted in buffer (10 mM HEPES/0.05% Tween) to obtain 50 ng binding protein per well. […] The concentration of the radioligand [3H]-granisetron (Perkin-Elmer, Life Science, Groningen, The Netherlands, specific activity ~85 Ci/mmol) was 1.99 nM. After addition of PVT Copper His-Tag SPA beads (final concentration 2 mg/mL), the final well volume was 100 µL. The plates (white Optiplates, Perkin-Elmer Life Science, Groningen, The Netherlands) were incubated at room temperature under continuous shaking while protected from light for 1.5 h. The SPA beads were then allowed to settle for 3 h in the absence of light before counting in a Wallac 1450 MicroBeta (Perkin-Elmer Life Science, Groningen, The Netherlands). All radioligand binding data were fit by a non-linear, least squares curve analysis procedure using Graphpad Prism (version 5, GraphPad Software).

A1B2D1W 5HTBP = assay: Fluorescence enhancement of anabaseine derivatives with 5HTBP (cuvette fluorometer); format: binding, Aplysia californica; conditions: fluorescence in presence of 5HTBP divided by fluorescence in absence of 5HTBP; A1B2D1W variant; excitation 488 nm
Protocol: (§1) We first evaluated three potentially suitable tracer ligands. […] Fluorescence enhancement factors are defined as fluorescence in presence of 5HTBP divided by fluorescence in absence of 5HTBP. […] DAHBA was therefore selected as the most suitable tracer ligand.
(§2) The fluorescence enhancement properties of three anabaseine derivatives (Supplementary Information Figure S3) bound to the orthosteric binding pocket of two different 5HTBP variants were measured using 1 cm wide glass cuvettes in a Perkin-Elmer LS50B fluorometer (Groningen, The Netherlands). The excitation spectra, λmax (nm), and ε (L·mol^−^1·cm^−^1) values of the anabaseine derivatives are described by Kool et al.. The emission spectra from 500–595 nm were recorded with 0.5 nm intervals with a fixed 488 nm excitation.

A1B2D1R 5HTBP = assay: as above; format: binding, Aplysia californica; conditions: fluorescence in presence of 5HTBP divided by fluorescence in absence of 5HTBP; A1B2D1R variant; excitation 488 nm
Protocol: as §1, §2

[3] = Stability of tracer ligand in solution (MS analysis); format: physicochemical; conditions: deduced by MS analysis
Excerpt: as §1

[4] = read-out: Ki fluorescence enhancement (A1B2D1R 5HTBP mutant), plate reader assay
[5] = read-out: Ki RLB (A1B2D1R 5HTBP mutant); [3H]-granisetron 1.99 nM
[6] = plate reader assay, read-out: Ki fluorescence enhancement (A1B2D1R 5HTBP mutant)
[7] = [3H]-granisetron 1.99 nM; read-out: Ki RLB (A1B2D1R 5HTBP mutant)

T1 sequence (Q8WSF8 entry or part of it, change not shown): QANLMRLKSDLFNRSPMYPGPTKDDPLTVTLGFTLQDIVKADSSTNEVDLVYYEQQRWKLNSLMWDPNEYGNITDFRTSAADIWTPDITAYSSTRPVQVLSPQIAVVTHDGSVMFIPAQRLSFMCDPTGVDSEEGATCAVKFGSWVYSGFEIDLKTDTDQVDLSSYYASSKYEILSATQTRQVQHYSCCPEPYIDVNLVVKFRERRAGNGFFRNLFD

Molecule | Ki (A1B2D1R 5HTBP mutant [1]; [4]) | Ki (A1B2D1R 5HTBP mutant [2]; [5]) | Ki (A1B2D1R 5HTBP mutant [1]; [6]) | Ki (A1B2D1R 5HTBP mutant [2]; [7]) | also measured
COc1cc(N)c(Cl)cc1C(=O)NC1CN2CCC1CC2 (stereo not drawn) [zacopride] | 4.05 ± 1.14 µM | 1.62 ± 0.57 µM | – | – | –
CN1CCN2c3ncccc3Cc3ccccc3C2C1 (stereo not drawn) [mirtazapine] | 12.8 ± 3.99 µM | 9.29 ± 1.87 µM | – | – | –
CN1CCc2cc(/C=C3\CCCN=C3c3cccnc3)ccc21 [VUF11234, (E)-1-methyl-5-((2-(pyridin-3-yl)-5,6-dihydropyridin-3(4H)-ylidene)methyl)indoline] | – | – | – | – | fluorescence enhancement factor (A1B2D1W 5HTBP): 3.7; fluorescence enhancement factor (A1B2D1R 5HTBP): 6.5; degradation in solution [3]: notable degradation in solution
C=CCN1CCc2nc(N)sc2CC1 [B-HT920] | – | – | 3.85 ± 0.76 µM | 0.93 ± 0.24 µM | –
CN(C)c1ccc(/C=C2\CCCN=C2c2cccnc2)cc1 [VUF10907, (E)-3-(3-(4-Dimethylaminobenzylidene)-3,4,5,6-tetrahydropyridin-2-yl)pyridine] | – | – | – | – | fluorescence enhancement factor (A1B2D1W 5HTBP): 2.5; fluorescence enhancement factor (A1B2D1R 5HTBP): 3.8
O=C1c2cccc3c2[C@H](CCC3)CN1[C@@H]1CN2CCC1CC2 [palonosetron] | 2.2 ± 0.63 µM | 0.51 ± 0.11 µM | – | – | –
NC1CCN(c2cccc(Cl)n2)CC1 [SR57227] | – | – | 85 ± 7.62 µM | 39.7 ± 15 µM | –
c1ccc2nc(N3CCNCC3)ccc2c1 [quipazine] | 73 ± 32.2 µM | 53.8 ± 13.7 µM | – | – | –
CN1[C@@H]2CC[C@H]1C[C@@H](OC(=O)c1c[nH]c3ccccc13)C2 [tropisetron] | 0.04 µM | 0.01 µM | – | – | –
NCCc1c[nH]c2ccc(F)cc12 [5-fluorotryptamine HCL] | 110 ± 14 µM | 101 ± 50.2 µM | – | – | –
RS 16566 | – | – | 3 ± 0.02 µM | 0.38 ± 0.09 µM | –
CN1CCN(c2nc3ccccc3nc2Cl)CC1 [VUF10166] | – | – | 11.5 ± 3.58 µM | 2.39 ± 0.58 µM | –
CN1C2CCCC1CC(NC(=O)c1nn(C)c3ccccc13)C2 (stereo not drawn) [granisetron, Granisetron] | 0.24 ± 0.14 µM | 0.05 ± 0.01 µM | – | – | –
Cn1cc(C(=O)C(=O)NC2CN3CCC2CC3)c2ccccc21 (stereo not drawn) [RS56812] | – | – | 3.57 ± 0.91 µM | 1.6 ± 0.34 µM | –
CCN(CC)c1ccc(/C=C2\CCCN=C2c2cccnc2)c(O)c1 [DAHBA, (E)-3-(3-(4-diethylamino-2-hydroxybenzylidene)-3,4,5,6-tetrahydropyridin-2-yl)pyridine] | – | – | – | – | fluorescence enhancement factor (A1B2D1R 5HTBP): 4.7
